In patent US20240018146A1, “COMPOSITIONS AND METHODS OF USING THE SAME FOR TREATMENT OF NEURODEGENERATIVE AND MITOCHONDRIAL DISEASE” (MITOKININ, INC., priority 2020, published 2024):
pEC50: −log10 of the molar value. Like-named read-outs stand apart in the source and are kept apart here.

Key:
[1] = tested on: HeLa MKYP cells; assay: Human mitophagy assay (HeLa mKeima assay, FACS); type: cell-based; conditions: read-out: Mitophagy induction EC50
Experimental: Briefly, HeLa MKYP cells were plated at 10,000 cells/well in 96 well plates along with compounds at various concentrations. Following 16 hrs of incubation, cells were treated with 1 uM FCCP/oligomycin for 6 hours, then analyzed via FACS for the presence of mitochondria in lysosomes (as determined by an emissions spectrum shift from the pH-sensitive mtKeima tag).
Briefly, HeLa cells expressing a mitophagy indicator (mtKeima) protein were treated with […] of FCCP and Oligomycin followed by the specified dose of compound, then analyzed by FACS to quantify the percentage of cells undergoing mitophagy.

[2] = tested on: HeLa MKYP cells; assay: Cell death measured by DAPI staining, with 1 μM FCCP/oligomycin or no toxin (no FO); type: cell-based
Experimental: EP-0035985, EP-0037821, EP-0038098, and EP-0038099 in the presence of 1 μM FCCP/oligomycin or with no toxin (no FO) for 6 hrs. H2O2 treatment was performed as a control for cell death as measured by DAPI staining.
EP-0035985, EP-0038461, EP-0038463, and EP-0038503 in the presence of 1 μM FCCP/oligomycin or with no toxin (no FO) for 6.5 hrs. H2O2 treatment was performed as a control for cell death as measured by DAPI staining.
EP-0035985, EP-0038504, EP-0038508, and EP-0038521 in the presence of 1 μM FCCP/oligomycin or with no toxin (no FO) for 6.5 hrs. H2O2 treatment was performed as a control for cell death as measured by DAPI staining.
EP-0035985, EP-0038461, EP-0038463, EP-0038503, EP-0038504, EP-0038508, and EP-0038521 in the presence of 1 μM FCCP/oligomycin or with no toxin (no FO) for 6.5 hrs. H2O2 treatment was performed as a control for cell death as measured by DAPI staining.

Row | Compound | pEC50 ([1]; Homo sapiens, HeLa) | Highest safe dose (cytotoxicity; no FO; safe means DAPI+ <20%) [2] [µM] | Max % death with 1 μM FO [2] [%] | pEC50 [1]
1 | OC[C@H]1CCN(C2CCc3ccccc3C2Nc2ncnc3[nH]c(C(F)(F)F)cc23)C1 (mixture of isomers) [EP-0040121] | 5.89 | 25.0 | 33.6 | 
2 | Cc1ccc2c(c1)OC[C@H](N1CCOCC1)[C@H]2Nc1ncnc2[nH]c(C(F)(F)F)cc12 (racemic) [EP-0041045] | 5.81 | 25.0 | 7.7 | 
3 | [2H]C([2H])([2H])OC1CN([C@@H]2COc3ccccc3[C@H]2Nc2ncnc3[nH]c(C(F)(F)F)cc23)C1 (racemic) [EP-0041327] | < 4.60 | 25.0 | 4.1 | 
4 | FC(F)OC1CN([C@H]2COc3ccccc3[C@@H]2Nc2ncnc3[nH]c(C(F)(F)F)cc23)C1 (racemic) [EP-0041354] |  | 25.0 | 12.4 | 5.97
5 | FC(F)OC1CN([C@H]2COc3ccccc3[C@@H]2Nc2ncnc3[nH]c(C(F)(F)F)cc23)C1 (racemic) [EP-0041542] |  | 25.0 | 3.8 | < 4.60
6 | FC1(F)CN(C2COc3ccccc3C2Nc2ncnc3[nH]c(C4CC4)cc23)C1 (racemic) [EP-0041566] | 6.00 | 25.0 | 30.0 | 
7 | CC(=O)N1CCN(C2COc3ccccc3C2Nc2ncnc3[nH]c(C4CC4)cc23)CC1 (racemic) [EP-0041596] | 5.57 | 25.0 | 15.3 | 
8 | CN1CCN(C2COc3ccccc3C2Nc2ncnc3[nH]c(C4CC4)cc23)CC1=O (racemic) [EP-0041600] | < 4.60 | 25.0 | 4.9 | 
9 | FC(F)(F)c1cc2c(N[C@H]3c4ccccc4CC[C@@H]3OCC3CCOCC3)ncnc2[nH]1 (single isomer, unassigned) [EP-0038523] | 5.35 | 25.0 | 3.3 | 
10 | OC[C@@H]1CCCN1[C@H]1CCc2ccccc2[C@@H]1Nc1ncnc2[nH]c(C(F)(F)F)cc12 (single isomer, unassigned) [EP-0039732] | < 4.60 | 25.0 | 6.2 | 
11 | FC(F)(F)c1cc2c(N[C@H]3c4ccccc4CC[C@H]3OC3CCOCC3)ncnc2[nH]1 (single isomer, unassigned) [EP-0039733] | 5.03 | 25.0 | 3.1 | 
12 | c1ccc2c(c1)OC[C@@H](N1CCOCC1)[C@@H]2Nc1ncnc2[nH]c(C3CC3)cc12 (single isomer, unassigned) [EP-0040181] | < 4.60 | 25.0 | 5.9 | 
13 | C[C@H]1COCCN1[C@@H]1CCc2ccccc2[C@H]1Nc1ncnc2[nH]c(C(F)(F)F)cc12 (single isomer, unassigned) [EP-0040182] |  | 25.0 | 26.8 | 4.67
14 | C[C@H]1COCCN1[C@@H]1CCc2ccccc2[C@H]1Nc1ncnc2[nH]c(C(F)(F)F)cc12 (single isomer, unassigned) [EP-0040193] |  | 25.0 | 29.7 | 5.02
15 | C[C@@H]1COCCN1[C@@H]1CCc2ccccc2[C@H]1Nc1ncnc2[nH]c(C(F)(F)F)cc12 (single isomer, unassigned) [EP-0040195] | 4.73 | 25.0 | 12.0 | 
16 | C[C@@H]1COCCN1[C@@H]1CCc2ccccc2[C@H]1Nc1ncnc2[nH]c(C(F)(F)F)cc12 (single isomer, unassigned) [EP-0040197] |  | 25.0 | 8.4 | 4.64
17 | c1ccc2c(c1)CC[C@H](N1C[C@H]3COC[C@H]3C1)[C@H]2Nc1ncnc2[nH]c(C3CC3)cc12 (single isomer, unassigned) [EP-0040248] | < 4.60 | 25.0 | 3.7 | 

Row | Compound | pEC50 ([1]; Homo sapiens, HeLa) | Highest safe dose (cytotoxicity; no FO; safe means DAPI+ <20%) [2] [µM] | Max % death with 1 μM FO [2] [%] | pEC50 [1]
18 | c1ccc2c(c1)CC[C@@H](N1C[C@H]3COC[C@H]3C1)[C@@H]2Nc1ncnc2[nH]c(C3CC3)cc12 (single isomer, unassigned) [EP-0040249] | 7.05 | 25.0 | 12.3 | 
19 | FC(F)(F)c1cc2c(N[C@H]3c4ccccc4OC[C@@H]3N3CCOCC3)ncnc2[nH]1 (single isomer, unassigned) [EP-0040251] | < 4.60 | 25.0 | 3.1 | 
20 | Fc1ccc2c(c1)OC[C@H](N1C[C@H]3COC[C@H]3C1)[C@H]2Nc1ncnc2[nH]c(C(F)(F)F)cc12 (single isomer, unassigned) [EP-0040268] | < 4.60 | 25.0 | 3.2 | 
21 | Fc1ccc2c(c1)OC[C@H](N1C[C@H]3COC[C@H]3C1)[C@H]2Nc1ncnc2[nH]c(C3CC3)cc12 (single isomer, unassigned) [EP-0040326] |  | 25.0 | 3.6 | < 4.60
22 | C[C@@H]1COCCN1[C@H]1CCc2ccccc2[C@@H]1Nc1ncnc2[nH]c(C3CC3)cc12 (single isomer, unassigned) [EP-0040339] | < 4.60 | 25.0 | 16.5 | 
23 | C[C@@H]1COCCN1[C@H]1CCc2ccccc2[C@@H]1Nc1ncnc2[nH]c(C3CC3)cc12 (single isomer, unassigned) [EP-0040358] |  | 2.8 | 97.8 | < 4.60
24 | c1ccc2c(c1)OC[C@H](N1C[C@H]3COC[C@H]3C1)[C@H]2Nc1ncnc2[nH]c(C3CC3)cc12 (single isomer, unassigned) [EP-0040391] | < 4.60 | 25.0 | 3.9 | 
25 | C[C@@H]1CN([C@@H]2CCc3ccccc3[C@H]2Nc2ncnc3[nH]c(C(F)(F)F)cc23)CCO1 (single isomer, unassigned) [EP-0040492] | < 4.60 | 25.0 | 1.8 | 
26 | C[C@@H]1CN([C@@H]2CCc3ccccc3[C@H]2Nc2ncnc3[nH]c(C(F)(F)F)cc23)C[C@H](C)O1 (single isomer, unassigned) [EP-0040494] | < 4.60 | 25.0 | 4.1 | 
27 | C[C@@H]1CN([C@@H]2CCc3ccccc3[C@H]2Nc2ncnc3[nH]c(C4CC4)cc23)CCO1 (single isomer, unassigned) [EP-0040497] | 5.16 | 25.0 | 4.3 | 
28 | C[C@@H]1CN([C@@H]2CCc3ccccc3[C@H]2Nc2ncnc3[nH]c(C4CC4)cc23)C[C@H](C)O1 (single isomer, unassigned) [EP-0040499] | 5.28 | 25.0 | 4.3 | 
29 | Fc1ccc2c(c1)OC[C@@H](N1CCOCC1)[C@@H]2Nc1ncnc2[nH]c(C3CC3)cc12 (single isomer, unassigned) [EP-0040501] | 4.85 | 25.0 | 5.0 | 
30 | C[C@H]1CN([C@@H]2CCc3ccccc3[C@H]2Nc2ncnc3[nH]c(C(F)(F)F)cc23)CCO1 (single isomer, unassigned) [EP-0040504] | 5.03 | 25.0 | 2.0 | 
31 | Fc1cccc2c1CC[C@H](N1C[C@H]3COC[C@H]3C1)[C@H]2Nc1ncnc2[nH]c(C(F)(F)F)cc12 (single isomer, unassigned) [EP-0040505] | 4.87 | 25.0 | 14.3 | 
32 | C[C@H]1CN([C@@H]2CCc3ccccc3[C@H]2Nc2ncnc3[nH]c(C4CC4)cc23)CCO1 (single isomer, unassigned) [EP-0040512] | 4.92 | 25.0 | 26.7 | 
33 | Fc1ccc2c(c1)OC[C@H](N1C[C@@H]3COC[C@H]3C1)[C@H]2Nc1ncnc2[nH]c(C(F)(F)F)cc12 (single isomer, unassigned) [EP-0040562] | 5.82 | 25.0 | 7.9 | 
